Experimental data from publication PMC9784969, “SARS-CoV-2 Inhibitors Identified by Phenotypic Analysis of a Collection of Viral RNA-Binding Molecules” (Pharmaceuticals, 2022).
Like-named read-outs stand apart in the source and are kept apart here.

What was measured:
[1] = tested on: SCoV2 RNA elements; experiment: ligand-based 1H NMR (1D, CPMG, wLOGSY), six RNA elements compared; type: binding, SARS-CoV-2; settings: CSP, LB, CPMG and wLOGSY perturbations; 300 µM compound
Description: We first used ligand-based ^1H NMR experiments to analyze the interaction of the selected compounds with each of the six RNA elements specified above, including one-dimensional, Carr–Purcell–Meiboom–Gill (CPMG) and waterLOGSY (wLOGSY) experiments. These assays detect changes in the ^1H signals of the ligand upon RNA association (Figure 4A), and have been successfully used to evaluate small-molecule binding to RNA motifs, including elements of the SCoV2 genome.
Each ligand (at a concentration of 300 μM) was mixed with a smaller quantity of RNA in an aqueous solution containing 25 mM potassium phosphate (pH 6.2), 150 mM KCl, 3 mM MgCl2, and 10% D2O. RNA–ligand molar ratios of 1:50 and 1:100 were explored (with 6 and 3 μM RNA, respectively). […] The water signal was suppressed from one-dimensional experiments with a watergate sequence. The CPMG experiments were acquired with 100, 200, 300, and 400 ms relaxation delays before acquisition, and water suppression was achieved by presaturation. wLOGSY experiments employed a selective Gaussian 180° pulse at the water frequency and an NOE mixing time of 1.5 s and suppressed the water signal by excitation sculpting. All spectra were acquired in the absence and presence of RNA.
All ligand signals were individually analyzed. For clomiphene citrate, the signals corresponding to cis and trans forms were identified by comparing the spectrum of clomiphene citrate with those of the individual stereoisomers. In CPMG experiments, the binding of the compounds to the different RNA sequences was quantified as 100 minus the percentage of ligand signal area in the +RNA CPMG spectrum relative to the corresponding signal area in the -RNA CPMG spectrum. In wLOGSY experiments, binding was quantified with the LOGSY factor, or % of ligand signal in the difference spectrum between the +RNA and –RNA wLOGSY spectra, relative to the corresponding signal in the one-dimensional -RNA reference spectrum. In one-dimensional experiments, line broadening (LB) was quantified as explained for CPMG spectra.

[2] = tested on: 3_SL1+2 RNA; type: binding
[3] = tested on: 5_SL2+3 RNA; experiment: RNA-based 1H NMR (TOCSY) titration; type: binding, SARS-CoV-2; settings: RNA:ligand up to 1:4
[4] = tested on: Vero E6 cells; settings: read-out: SARS-CoV-2 CC50, uninfected, MTT
[5] = tested on: HIV-1; settings: ref 3 (Table S1 list: Simba-Lahuasi et al., Unpublished results); cited from earlier work
[6] = tested on: subdomain IIB of the rev recognition element (RRE) of the HIV-1 genomic RNA; settings: ref 3 (Table S1 list: Simba-Lahuasi et al., Unpublished results); cited from earlier work
[7] = tested on: subdomain IIa of the internal ribosome entry site (IRES) RNA of HCV; parameters: method as in earlier work; settings: ref 6 (Table S1 list: Martín-Villamil et al. 2022); cited from earlier work
[8] = average of aliphatic protons, RNA:ligand 1:100 (clomiphene) or 1:50 (trim, qz2)
[9] = average of aromatic protons, RNA:ligand 1:100 (clomiphene) or 1:50 (trim, qz2)

## NCCCc1cn(C(c2ccccc2)(c2ccccc2)c2ccccc2)cn1 [trim]
[1]
  RNA binding preference: bound with enhanced affinity to the 5_SL2+3 and 3_S2m molecules
[2]; [8]
  CPMG variation: 18.3%
  LB: 14.0%
  LOGSY factor: 33.1%
[2]; [9]
  CPMG variation: 25.0%
  LB: 10.2%
  LOGSY factor: 87.9%
[2]; trim peak A, RNA:ligand 1:50
  CPMG variation: 18.5%
  LB: 11.8%
  LOGSY factor: 32.1%
[2]; trim peak B, RNA:ligand 1:50
  CPMG variation: 23.8%
  LB: 15.1%
  LOGSY factor: 34.2%
[2]; trim peak C, RNA:ligand 1:50
  CPMG variation: 23.6%
  LB: 7.46%
  LOGSY factor: 80.8%
[2]; trim peak D, RNA:ligand 1:50
  CPMG variation: 25.2%
  LB: 9.70%
  LOGSY factor: 92.6%
[2]; trim peak E, RNA:ligand 1:50
  CPMG variation: 26.4%
  LB: 14.1%
  LOGSY factor: 90.5%
[3]
  TOCSY perturbations: larger variations than clomiphene or qz2
[4]
  CC50: > 89.8 µM
[5]
  Previous target virus activity: yes
[6]
  Previous target RNA binding: yes

## CC(C)CCN1CCC(CNc2nc3ccccc3c(=O)[nH]2)CC1 [qz2]
[1]
  RNA binding preference: bound to the ORF7b element only
[2]; [8]
  LB: -2.14%
  LOGSY factor: 4.45%
[2]; [9]
  CPMG variation: 10.7%
  LB: 13.1%
  LOGSY factor: 11.5%
[2]; qz2 peak A, RNA:ligand 1:50
  CPMG variation: -13.7%
  LB: -2.06%
  LOGSY factor: 2.25%
[2]; qz2 peak C/D, RNA:ligand 1:50
  CPMG variation: -16.2%
  LB: -4.34%
  LOGSY factor: 7.61%
[2]; qz2 peak E/B, RNA:ligand 1:50
  CPMG variation: -19.5%
  LB: 7.16%
  LOGSY factor: 3.76%
[2]; qz2 peak F, RNA:ligand 1:50
  CPMG variation: -4.16%
  LB: -9.61%
  LOGSY factor: 3.95%
[2]; qz2 peak G, RNA:ligand 1:50
  CPMG variation: -11.4%
  LB: -3.71%
  LOGSY factor: 4.70%
[2]; qz2 peak I, RNA:ligand 1:50
  CPMG variation: 11.7%
  LB: 11.8%
  LOGSY factor: 15.1%
[2]; qz2 peak J, RNA:ligand 1:50
  CPMG variation: 11.1%
  LB: 21.8%
  LOGSY factor: 16.0%
[2]; qz2 peak K, RNA:ligand 1:50
  CPMG variation: 8.91%
  LB: 5.71%
  LOGSY factor: 3.38%
[7]
  Previous target RNA binding: yes
